Where two headings read alike, the source gives them in different places.
Columns and labels:
ETB receptor = conditions: read-out: K1 of ET-1/ETB binding affinity; cited from earlier work
[1] = system: unilateral ischemic renal injury; assay: unilateral ischemia/reperfusion (I/R) injury protocol, renal weight two weeks post ischemia; type: in vivo, CD-1 mice
Experimental: (§1) All experiments were performed using male 30-45 gram CD-1 mice, obtained from Charles River Laboratories, Wilmington, Mass. They were housed under routine vivarium conditions with free food and water access. Surgeries were conducted under deep pentobarbital anesthesia (40-50 mg/Kg IP). Post surgical analgesia was provided with buprenorphine (0.1 mg/Kg IP) at the completion of surgery. All procedures were approved by the institution's IACUC, in accordance with NIH guidelines.
In this example, ET-1 and ETA/ETB receptor expression were quantified following ischemic renal injury, and ET-1 gene chromatin remodeling and RNA polymerase II (Pol II) binding were evaluated. Ten mice were subjected to a midline laparotomy, and the left renal pedicles were exposed and occluded ×30 min using atraumatic microvascular clamps. Uniform ischemia was confirmed by the development of total kidney cyanosis (indicating hypoxia). Body temperature was monitored with an intra-abdominal thermometer and maintained at 37° C. with an external heating source. At the completion of the ischemic period, the vascular clamp was removed, and uniform reperfusion was confirmed by loss of kidney cyanosis. The abdominal incision was then sutured in two layers using 3-0 chromic suture. The mice were then allowed to recover from anesthesia. Ten additional mice, subjected to the same surgical procedure, but not to renal pedicle occlusion, served as sham-operated controls.
This example studied whether atrasentan treatment, during pre- and post-ischemic period, confers renal protection. Eighteen mice were subjected to a unilateral ischemia/reperfusion (I/R) protocol as described in Example 1. […] Atrasentan was administered in the drinking water (25 μg/mL; designed to equate with a dose of ˜5 mg/Kg/day). Atrasentan dosing was started one day before surgery, and continued throughout the remainder of the experiment. Fresh atrasentan was provided ˜2-3× per week for two weeks. The remaining nine mice received only free food and water access, serving as controls.
The degree of post-ischemic loss of renal mass was assessed by comparing the weights of kidneys from sham operated mice, control post-ischemic mice, and post ischemic mice that had received atrasentan treatment. Finally, frontal sections of post-ischemic kidneys were taken from five control mice and five atrasentan-treated mice, fixed in 10% buffered formalin, and used for subsequent histochemical analyses.
This example studies whether atrasentan treatment, restricted to the post-ischemic period, confers renal protection. This experiment was designed to help resolve the issue of when atrasentan was inducing its protective effect. To this end, the same protocol described in Example 2 was repeated, but atrasentan administration was commenced 24 hours after the induction of ischemic damage). At the end of two weeks, the mice were re-anesthetized and the left and right kidneys were weighed. The degree of post ischemic renal weight reduction (the primary endpoint of the above described experiment) was determined. […]
This example studies the potential effects of atrasentan on renal growth independent of ischemic injury. To ascertain whether atrasentan treatment might impact renal growth or size independent of an effect on renal ischemia/post ischemic injury, renal weights of the contralateral (non ischemic) kidneys from the Example 2 were assessed and compared to ischemic kidneys with and without treatment with atrasentan. […]

post ischemic kidneys = assay: renal histology (H and E injury score, KI-67 staining) of two week post ischemic kidneys; type: in vivo, CD-1 mice; conditions: pre+post atrasentan
Experimental: Calculations and Statistics: All values are presented as means±1 SEM. Statistical comparisons were performed by unpaired Student's t test. The mRNA data were generated by competitive RT-PCR, with the results for any given message being expressed as a ratio to the simultaneously determined GAPDH product, used as a housekeeping gene. ChIP data, generated with real time PCR (qPCR) are presented as ng/mg total applied chromatin. The severity of histologic injury, as determined by studying H and E stained kidney sections, was assessed by blinded scoring of slides of 2 week post ischemic kidneys from 5 Atrasentan treated (24 hrs pre-ischemia, and 2 weeks post-ischemia) mice, and from 5 non Atrasentan treated post ischemic controls. […]
This example examined renal histology on kidneys from five control mice and five atrasentan-treated mice from Example 2. […] In addition, renal tubular cell proliferation was assessed by immunohistochemical staining for KI-67, a nuclear protein marker of all active cell cycle phases (G1, S, G2, mitosis; but not Go). (Scholzen T, et al., The Ki-67 protein: from the known and the unknown. J Cell Physiol. 182: 311-322, 2000.) The percent of KI-67 cells was determined on whole kidney sections, captured with ScanScope AT (Aperio, Vista, Calif.), and then analyzed with Nuclear Algorithm Spectrum software (version 11.1.1.764; Aperio).

[2] = system: bilateral ischemic renal injury; assay: bilateral ischemic renal injury, severity at 24 hours post ischemia; type: in vivo, CD-1 mice; conditions: 22.5 min or 25 min bilateral ischemia
Experimental: as §1
This example studies whether atrasentan pre-treatment protects against the acute ischemic injury phase. More particularly, the possibility that atrasentan might mitigate the acute injury phase, and thus, cause a subsequent preservation of renal mass, was explored by subjecting mice to either 22.5 minutes or 25 minutes of bilateral ischemic renal injury in the presence or absence of atrasentan pre-treatment for 24 hours before and for 24 hours after the induction of renal ischemia. […]
The severity of injury was assessed at 24 hours post ischemia by BUN and plasma creatinine concentrations. […] As a second marker of renal injury, renal cortical NGAL mRNA levels were also assessed. Measurement of NGAL mRNA represents a more sensitive biomarker of kidney injury than BUN and Plasma Creatinine measured in FIG. 8 and was measured to investigate the effect of atrasentan on the induction phase of ischemic injury.

[3] = system: proximal tubule (HK-2) cells
Experimental: After eighteen hours of incubation, lethal cell injury was assessed by % LDH release.

Structure (SMILES)	Ki (ETB receptor)	effect on renal parameters measured ([1]; BQ-788 administered both pre- and post-ischemia)	post ischemic kidney weight ([1]; BQ-788 subcutaneously each day from 1 day before surgery, two weeks post ischemia, control ischemia 0.23 grams)	% KI-67 nuclear positivity (post ischemic kidneys; two week post ischemic kidney, control ischemia 11.4±0.8%, normal kidneys 2.4±0.6%)	histologic injury score (semiquantitative 1+ to 4+, least to most severe) (post ischemic kidneys; two weeks post ischemia, control ischemia 3.4±0.3, p<0.01, mean±SEM)	severity of AKI by BUN and plasma creatinine concentrations ([2]; atrasentan 24 hours before and 24 hours after, assessed 24 hours post ischemia)	renal cortical NGAL mRNA levels ([2]; atrasentan 24 hours before and after, 24 hours post ischemia)	LDH release ([3]; CAD (antimycin A/Ca ionophore/2-deoxyglucose) + 5 μg atrasentan, 18 hours, CAD alone 22.8±0.2%)	LDH release ([3]; human, 18 h, 5 μg/mL)	post ischemic loss of renal mass (renal weight) ([1]; atrasentan commenced 24 hours after induction of ischemic damage, two weeks)	post ischemic kidney weight (renal mass) ([1]; atrasentan in drinking water ~5 mg/Kg/day, started one day before 30 min unilateral ischemia and continued two weeks post ischemia, vs normal kidneys)	contralateral (non ischemic) kidney weight, hypertrophic response ([1]; pre+post atrasentan, two weeks, drug vs. no-drug groups)
CCCC[C@@H](NC(=O)[C@@H](Cc1cn(C(=O)OC)c2ccccc12)NC(=O)[C@H](CC(C)(C)C)NC(=O)N1[C@H](C)CCC[C@@H]1C)C(=O)[O-].[Na+] [BQ-788, N-cis-2,6-dimethylpiperidinocarbonyl-L-gamma-methylleucyl-D-1-methoxycarbonyltryptophanyl-D-norleucine]	100 nM	no effect on any of the renal parameters measured	0.24 grams									
CCCCN(CCCC)C(=O)CN1C[C@H](c2ccc3c(c2)OCO3)[C@@H](C(=O)O)[C@@H]1c1ccc(OC)cc1 [atrasentan, (2R,3R,4S)-4-(1,3-benzodioxol-5-yl)-1-[2-(dibutylamino)-2-oxoethyl]-2-(4-methoxyphenyl)pyrrolidine-3-carboxylic acid]				10.8±1.2%	1.7±0.4	failed to mitigate the severity of AKI	in neither instance did atrasentan decrease these NGAL mRNA increases	23.2±0.3%	9.0±0.1%	completely blocked this loss of renal mass	did not significantly differ from that of normal kidneys	no effect on this hypertrophic response
